Laboratory results reported in patent publication US9611453B2, “Micromechanical devices for control of cell-cell interaction, and methods of use thereof” (The Regents of the University of California, priority 2007, dated 2017).

Key:
3T3 fibroblasts = experiment: Viability assay of hepatocyte / 3T3 fibroblast co-culture after drug exposure, populations separated on micromechanical substrates; format: cell-based, murine
From the text: FIG. 13 depicts population-specific readout or selective interrogation. Hepatocytes and 3T3 fibroblasts are co-cultured to maintain hepatocyte differentiation. In (A) the drug Pyrilamine is introduced while the cells are in co-culture. By using the micromechanical substrates, the two cell populations are separated prior to viability assay, allowing the viability of each cell type to be assessed independently. […] In (B) the effect of the drug Methapyrilamine is compared when the cells are in co-culture or when the 3T3 are alone.
In another embodiment, in addition to the selective stimulation described above, one can separate a subpopulation of cells from a culture in order to assay those cells specifically; this is known as selective interrogation. One example of selective interrogation is shown in FIG. 11, where SEC cells are separated out from a culture of many cell types, and a Western Blot is performed on the purified SEC population. Another example is in FIG. 15, where hepatocytes and 3T3 fibroblasts are separated before viability assays are performed on each population.

[1] = system: liver sinusoidal endothelial cells (LSEC); experiment: SE-1 expression of cultured LSEC (immunohistochemistry and Western blotting); format: cell-based; conditions: primary rat LSEC cultured in the presence of OV, day 3
Procedure: For example, immunohistochemistry and Western blotting were used to characterize expression of the specific EC markers RECA, SE-1, PECAM and AcLDL in isolated primary rat LSECs were cultured under the following conditions: a) on the different ECM proteins including, Collagen-I, Fibronectin, Laminin, and Collagen-IV; b) with various combinations of supportive cells, using the micromechanical reconfigurable culture method described herein to enable tracking of individual cell types, separation into pure populations for analysis, and deconvolution of contact-mediated versus soluble signals; and c) in the presence of the tyrosine phosphatase inhibitor, orthovanadate (OV).
In addition, the co-culture of LSEC with hepatocytes or fibroblast-stabilized hepatocytes induced LSEC proliferation as well as the activation of the transcription factor STAT-1.

LSEC = conditions: previously demonstrated (Fujimoto, H. et al. 2006); cited from earlier work

For `CN(C)CCN(Cc1cccs1)c1ccccn1` [Methapyrilamine], the “sensitivity of 3T3 to the toxic effects, co-culture versus 3T3 alone” value (3T3 fibroblasts; 3T3 in co-culture with hepatocytes or alone, FIG. 13B) was “more sensitive to the toxic effects of the drug when alone”.

In the case of `[O]=[V]([O-])([O-])[O-]` [OV, orthovanadate], the SE-1 expression [1] is listed as “strongly maintaining” and the LSEC apoptosis (LSEC) is listed as “inhibited LSEC apoptosis”.

For `COc1ccc(CN(CCN(C)C)c2ccccn2)cc1` [Pyrilamine], the “sensitivity to the toxic effects (viability), 3T3 versus hepatocytes” value (3T3 fibroblasts; drug introduced while hepatocytes and 3T3 are in co-culture, populations separated prior to viability assay, FIG. 13A) was 3T3 are shown to be more sensitive.
